# Data from patent publication US11708562B2, “Differentiation of human embryonic stem cells” (Janssen Biotech, Inc., priority 2006, dated 2023).
# System: H9P33, H9P44 and H9P48 cells
# Assay: Microarray analysis of definitive endoderm on MEFs vs MATRIGEL +/- Wnt-3A (Table VI)
# Conditions: log format
# Protocol: Controls for each group included cells plated on […]-coated dishes and cultured in MEF-conditioned medium or cells plated on MEFs and cultured in ES medium. All groups contained three biological replicates and each biological replicate was repeated on two separate gene chips.
# Sample preparation, hybridization, and image analysis were performed according to the Affymetrix Human Genome U133 Plus 2.0 Array. Following normalization and a log transformation, data analysis was performed using OmniViz® software (MA) and […] (VizXLabs, WA). Significant differences in gene expression between the samples were evaluated using analysis of variance and an F-test with adjusted P-value (Benjamini and Hochberg correction) of ≤0.05. Only genes with a present call in at least one group were included in the analysis.
# [1] = DE treatment in low serum + AA on MATRIGEL
# [2] = DE treatment in low serum + AA on MEFS
substance,measurement,setting,value
Activin A: a member of the TGFβ superfamily; growth factor (R&D Systems) used to differentiate human embryonic stem cells,"mean normalized intensity: Homo sapiens chorionic somatomammotropin hormone 2 (CSH2), transcript variant 1, mRNA.",[1],1.124
same,"mean normalized intensity: Homo sapiens chorionic somatomammotropin hormone 2 (CSH2), transcript variant 4, mRNA.",[1],0.8122
same,"mean normalized intensity: Homo sapiens galanin receptor 1 (GALR1), mRNA.",[1],2.507
same,"mean normalized intensity: Homo sapiens growth hormone 2 (GH2), transcript variant 2, mRNA.",[1],0.9226
same,"mean normalized intensity: Homo sapiens hypothetical protein FLJ20075 (FLJ20075), mRNA.",[1],−0.3592
same,"mean normalized intensity: Homo sapiens mRNA for SCCA2b, complete cds.",[1],3.329
same,mean normalized intensity: Homo sapiens mRNA; cDNA DKFZp586P1124 (from clone DKFZp586P1124),[1],0.4856
same,"mean normalized intensity: Homo sapiens methyl-CpG binding protein MBD2 (MBD2) mRNA, complete cds.",[1],0.4906
same,"mean normalized intensity: Homo sapiens tachykinin, precursor 1 (TAC1), transcript variant beta, mRNA.",[1],2.773
same,"mean normalized intensity: Homo sapiens testis expressed sequence 14 (TEX14), mRNA.",[1],3.512
same,"mean normalized intensity: Homo sapiens, Similar to LIM homeobox protein 8, clone IMAGE: 4839343, mRNA.",[1],−0.06288
same,"mean normalized intensity: Homo sapiens, Similar to cadherin 6, type 2, K-cadherin (fetal kidney), clone MGC: 1470, mRNA, complete cds.",[1],2.547
same,"mean normalized intensity: Homo sapiens, Similar to hypothetical protein FLJ10058, clone MGC: 34305 IMAGE: 5167647, mRNA, complete cds.",[1],1.698
same,"mean normalized intensity: Homo sapiens, Similar to hypothetical protein FLJ32001, clone MGC: 39559 IMAGE: 4828136, mRNA, complete cds.",[1],0.5207
same,"mean normalized intensity: Homo sapiens, clone IMAGE: 4067166, mRNA",[1],0.1959
same,"mean normalized intensity: Homo sapiens, clone IMAGE: 4828836, mRNA.",[1],0.9729
same,"mean normalized intensity: Homo sapiens, serine (or cysteine) proteinase inhibitor, clade B (ovalbumin), member 3, clone MGC: 12244, mRNA, complete cds.",[1],1.969
same,mean normalized intensity: Human mRNA upregulated during camptothecin-induced apoptosis of U937 cells.,[1],0.4945
same,"mean normalized intensity: Human platelet-derived growth factor alpha-receptor (PDGFRA) mRNA, exons 13-16",[1],2.445
same,mean normalized intensity: KIAA1151 protein,[1],0.6425
same,mean normalized intensity: caldesmon 1,[1],7.092
same,"mean normalized intensity: nuclear receptor subfamily 1, group I, member 3",[1],1.779
same,mean normalized intensity: ESTs,"DE treatment in low serum + AA on MATRIGEL, gene line r2006",1.5857
same,mean normalized intensity: ESTs,"DE treatment in low serum + AA on MATRIGEL, gene line r2025",1.531
same,mean normalized intensity: ESTs,"DE treatment in low serum + AA on MATRIGEL, gene line r2032",0.1336
same,mean normalized intensity: paternally expressed 3,"DE treatment in low serum + AA on MATRIGEL, gene line r2033",2.876
same,mean normalized intensity: ESTs,"DE treatment in low serum + AA on MATRIGEL, gene line r2038",3.262
same,mean normalized intensity: paternally expressed 3,"DE treatment in low serum + AA on MATRIGEL, gene line r2093",2.874
same,mean normalized intensity: ESTs,"DE treatment in low serum + AA on MATRIGEL, gene line r2134",−1.3795
same,mean normalized intensity: ESTs,"DE treatment in low serum + AA on MATRIGEL, gene line r2148",4.454
same,mean normalized intensity: DKFZP566K1924 protein,[2],1.391
same,mean normalized intensity: H. sapiens mRNA for B-HLH DNA binding protein.,[2],3.451
same,"mean normalized intensity: Homo sapiens BCL2-interacting killer (apoptosis-inducing) (BIK), mRNA.",[2],3.562
same,"mean normalized intensity: Homo sapiens Charot-Leyden crystal protein (CLC), mRNA.",[2],2.1096
same,"mean normalized intensity: Homo sapiens HES-related repressor protein 1 HERP1 mRNA, complete cds.",[2],2.406
same,"mean normalized intensity: Homo sapiens HSPC156 protein (HSPC156), mRNA.",[2],1.296
same,"mean normalized intensity: Homo sapiens KIAA0469 gene product (KIAA0469), mRNA.",[2],2.565
same,"mean normalized intensity: Homo sapiens PNAS-123 mRNA, complete cds",[2],1.847
same,"mean normalized intensity: Homo sapiens Wilms tumor 1 (WT1), transcript variant D, mRNA.",[2],−2.435
same,"mean normalized intensity: Homo sapiens cDNA FLJ11398 fis, clone HEMBA1000637.",[2],1.849
same,"mean normalized intensity: Homo sapiens cDNA: FLJ22547 fis, clone HSI00356",[2],2.095
same,"mean normalized intensity: Homo sapiens cadherin 6, type 2, K-cadherin (fetal kidney) (CDH6), mRNA.",[2],−0.8763
same,"mean normalized intensity: Homo sapiens chorionic somatomammotropin hormone 2 (CSH2), transcript variant 1, mRNA.",[2],2.616
same,"mean normalized intensity: Homo sapiens chorionic somatomammotropin hormone 2 (CSH2), transcript variant 4, mRNA.",[2],2.218
same,"mean normalized intensity: Homo sapiens galanin receptor 1 (GALR1), mRNA.",[2],−0.338
same,"mean normalized intensity: Homo sapiens growth hormone 2 (GH2), transcript variant 2, mRNA.",[2],1.4679
same,"mean normalized intensity: Homo sapiens hypothetical protein FLJ20075 (FLJ20075), mRNA.",[2],−0.06528
same,"mean normalized intensity: Homo sapiens mRNA for SCCA2b, complete cds.",[2],0.568
same,mean normalized intensity: Homo sapiens mRNA; cDNA DKFZp586P1124 (from clone DKFZp586P1124),[2],−3.094
same,"mean normalized intensity: Homo sapiens methyl-CpG binding protein MBD2 (MBD2) mRNA, complete cds.",[2],−1.702
same,"mean normalized intensity: Homo sapiens tachykinin, precursor 1 (TAC1), transcript variant beta, mRNA.",[2],1.483
same,"mean normalized intensity: Homo sapiens testis expressed sequence 14 (TEX14), mRNA.",[2],−1.3824
same,"mean normalized intensity: Homo sapiens, Similar to LIM homeobox protein 8, clone IMAGE: 4839343, mRNA.",[2],−1.11
same,"mean normalized intensity: Homo sapiens, Similar to cadherin 6, type 2, K-cadherin (fetal kidney), clone MGC: 1470, mRNA, complete cds.",[2],2.134
same,"mean normalized intensity: Homo sapiens, Similar to hypothetical protein FLJ10058, clone MGC: 34305 IMAGE: 5167647, mRNA, complete cds.",[2],0.2156
same,"mean normalized intensity: Homo sapiens, Similar to hypothetical protein FLJ32001, clone MGC: 39559 IMAGE: 4828136, mRNA, complete cds.",[2],1.269
same,"mean normalized intensity: Homo sapiens, clone IMAGE: 4067166, mRNA",[2],0.277
same,"mean normalized intensity: Homo sapiens, clone IMAGE: 4828836, mRNA.",[2],−1.484
same,"mean normalized intensity: Homo sapiens, serine (or cysteine) proteinase inhibitor, clade B (ovalbumin), member 3, clone MGC: 12244, mRNA, complete cds.",[2],−1.566
same,mean normalized intensity: Human mRNA upregulated during camptothecin-induced apoptosis of U937 cells.,[2],−0.1892
same,"mean normalized intensity: Human platelet-derived growth factor alpha-receptor (PDGFRA) mRNA, exons 13-16",[2],2.905
same,mean normalized intensity: KIAA1151 protein,[2],1.009
same,mean normalized intensity: caldesmon 1,[2],5.634
same,"mean normalized intensity: nuclear receptor subfamily 1, group I, member 3",[2],−0.1968
same,mean normalized intensity: ESTs,"DE treatment in low serum + AA on MEFS, gene line r2006",−1.3
same,mean normalized intensity: ESTs,"DE treatment in low serum + AA on MEFS, gene line r2025",1.373
same,mean normalized intensity: ESTs,"DE treatment in low serum + AA on MEFS, gene line r2032",−1.566
same,mean normalized intensity: paternally expressed 3,"DE treatment in low serum + AA on MEFS, gene line r2033",−0.0118
same,mean normalized intensity: ESTs,"DE treatment in low serum + AA on MEFS, gene line r2038",1.5682
same,mean normalized intensity: paternally expressed 3,"DE treatment in low serum + AA on MEFS, gene line r2093",−3.492
same,mean normalized intensity: ESTs,"DE treatment in low serum + AA on MEFS, gene line r2134",−0.9461
same,mean normalized intensity: ESTs,"DE treatment in low serum + AA on MEFS, gene line r2148",5.334
